Laboratory results published in PMC11440035, “Interaction of myricetin, ampelopsin (dihydromyricetin), and their sulfate metabolites with serum albumin, cytochrome P450 (CYP2C9, 2C19, and 3A4) enzymes, and organic anion‐transporting polypeptides (OATP1B1 and OATP2B1)” (Pharmacology Research & Perspectives, 2024).
“And” between values parts separate entries of the source, which are not always exact repeats. Equal values may be shown once. Read-outs that look alike come from different tables or passages of the source.

Experiments:
OATP2B1 [1] = target: T1, OATP2B1 (Homo sapiens, UniProt O94956); experiment: Uptake of flavonoids by A431-OATP2B1 versus mock cells (APB fluorescence); type: cell-based; conditions: for cellular flavonoid level in OATP2B1‐overexpressing versus mock control cells: 10 μM flavonoid, 15 min, 37°C; for substrate of OATP2B1: conclusion from uptake studies
T1 construct: expressed in transfected cells; host or cells: A431
T1 sequence (O94956 1-709): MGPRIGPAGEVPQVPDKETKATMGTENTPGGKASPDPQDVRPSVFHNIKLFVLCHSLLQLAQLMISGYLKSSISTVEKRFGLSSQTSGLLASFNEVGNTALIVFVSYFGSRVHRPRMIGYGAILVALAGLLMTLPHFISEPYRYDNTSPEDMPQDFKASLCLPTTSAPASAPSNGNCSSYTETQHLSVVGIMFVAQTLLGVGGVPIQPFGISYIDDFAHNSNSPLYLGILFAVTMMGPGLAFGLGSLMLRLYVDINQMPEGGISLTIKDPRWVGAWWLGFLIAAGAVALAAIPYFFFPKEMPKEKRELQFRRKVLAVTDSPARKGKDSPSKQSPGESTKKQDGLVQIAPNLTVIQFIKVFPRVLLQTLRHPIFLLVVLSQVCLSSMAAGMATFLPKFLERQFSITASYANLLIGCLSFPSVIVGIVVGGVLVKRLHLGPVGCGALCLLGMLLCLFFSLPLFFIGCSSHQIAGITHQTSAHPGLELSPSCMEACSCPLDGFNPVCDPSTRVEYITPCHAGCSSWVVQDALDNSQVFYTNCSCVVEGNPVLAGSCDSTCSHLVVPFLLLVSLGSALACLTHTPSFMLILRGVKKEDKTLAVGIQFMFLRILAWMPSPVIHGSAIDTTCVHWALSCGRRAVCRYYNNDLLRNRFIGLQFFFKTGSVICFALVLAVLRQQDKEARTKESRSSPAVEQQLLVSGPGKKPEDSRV
Experimental: Direct uptake of AMP, MYR, and their sulfate metabolites were examined in A431 cells overexpressing OATP1B1 or OATP2B1, and in their mock‐transfected controls using APB as a fluorescence enhancer. One day before the uptake measurements, the cells were seeded onto 96‐well plates at a density of 80 000 cells/well in DMEM (200 μL). The following day, the cell culture medium was removed, and the cells were rinsed thrice with PBS (200 μL). Thereafter, the cells were preincubated with HBSS (50 μL) for 5 min at 37°C. The uptake reaction was initiated by the addition of a further 50 μL of HBSS containing AMP, MYR, or their sulfate conjugates (10 μM). After incubating for 15 min at 37°C, the reaction was stopped by removing the supernatant and rinsing the cells three times with ice‐cold PBS. Then PBS buffer (200 μL) containing APB (250 μg/mL) and BSA (1 mg/mL) was added to each well.[35] The fluorescence was read using an Enspire plate reader using the wavelengths listed in Section 2.7.
The concentration‐dependent uptake of M3′S was also tested under the same conditions, except the cells were incubated with 0–10 μM M3′S for 2 min (OATP1B1) or 5 min (OATP2B1).
To test the effect of BSP (a known inhibitor of OATPs[44]) on the cellular uptake of M3′S, cells were preincubated with HBSS buffer (50 μL) with or without BSP (20 μM) for 5 min at 37°C. Thereafter, we added 50 μL of HBSS containing M3′S (final concentration: 2 μM), and cells were further incubated at 37°C for 2 min (OATP1B1) or 5 min (OATP2B1). The reaction was stopped by removing the supernatant. After washing the cells with ice‐cold PBS, a PBS buffer with APB/BSA was added. Fluorescence was determined by applying an Enspire plate reader at excitation/emission wavelengths of 480/540 nm.

OATP2B1 [2] = target: T1, OATP2B1; experiment: Inhibition of OATP2B1-mediated pyranine uptake in A431 cells; type: cell-based; conditions: for inhibition of OATP2B1 in words / inhibition at 15 min, 25 μM: 25 μM flavonoid; for IC50: 15 min, uptake buffer pH 5.5, A431-OATP2B1 cells; for inhibitory strength on OATP2B1 relative to A4′S: ratio of IC50 values; for inhibition at 15 min, 25 μM: human, A431 cells overexpressing OATP2B1, pH 5.5, probe pyranine, 20 μM, read-out: inhibition / reduction of OATP2B1 transport activity
Experimental: Human A431 cells overexpressing OATPs (OATP1B1 or OATP2B1) and their mock‐transfected controls were established earlier.[42], [43] The cells were maintained at 37°C with 5% CO2 in Dulbecco's Modified Eagle Medium (DMEM; Thermo Fischer Scientific, Waltham, MA, USA) supplemented with fetal bovine serum (10%), L‐glutamine (2 mM), penicillin (100 units/mL) and streptomycin (100 μg/mL).
The inhibitory impacts of MYR, AMP, and their sulfate metabolites on OATP1B1 and OATP2B1 were examined using the fluorescent dye substrates disulfopyrene (6,8‐dihydroxy‐1,3‐disulfopyrene) and pyranine, respectively.[42], [43] The day before the transport measurements, A431 cells overexpressing OATP1B1 or OATP2B1 (and their mock‐transfected controls) were seeded onto 96‐well plates at a density of 80 000 cells/well in DMEM (200 μL). Next day, the medium was removed, the cells were washed three times with PBS (pH 7.4, 200 μL) at room temperature, then the cells were pre‐incubated with 50 μL of Hank's Balanced Salt Solution (HBSS, pH 7.4; OATP1B1) or uptake buffer (pH 5.5; OATP2B1) for 5 min at 37°C with or without the flavonoids.[43] The transport reaction was started by adding 50 μL of disulfopyrene‐containing (final concentration: 10 μM) HBSS (OATP1B1 assay), or pyranine‐containing (final concentration: 20 μM) uptake buffer (OATP2B1 assay). After 10 min (OATP1B1) or 15 min (OATP2B1), the transport was stopped by removing the supernatant and washing the cells three times with ice‐cold PBS (200 μL). Then the fluorescence was measured in 200 μL of PBS using an Enspire plate reader (PerkinElmer, Waltham, MA, US) at excitation and emission wavelengths of 460/510 nm. OATP‐dependent transport was determined by subtracting the fluorescence detected in mock control cells from that of OATP‐expressing cells. Transport activity was measured based on the fluorescence signal in the absence of flavonoids (100%).

[3] = pyranine 20 μM, read-out: IC50, OATP2B1

| Structure (SMILES) | concentration‐dependent uptake in OATP2B1‐overexpressing cells (OATP2B1 [1]; 0–10 μM, 5 min) | cellular flavonoid level in OATP2B1‐overexpressing versus mock control cells (OATP2B1 [1]) | substrate of OATP2B1 (OATP2B1 [1]) | inhibition of OATP2B1 in words (OATP2B1 [2]) | IC50 (OATP2B1 [2]; [3]) | inhibitory strength on OATP2B1 relative to A4′S (OATP2B1 [2]) | IC50 (OATP2B1 [2]; IC50, OATP2B1, pyranine 20 μM) | inhibition at 15 min, 25 μM (OATP2B1 [2]) [%] |
| --- | --- | --- | --- | --- | --- | --- | --- | --- |
| O=c1c(O)c(-c2cc(O)c(O)c(OS(=O)(=O)O)c2)oc2cc(O)cc(O)c12 [M3′S, myricetin‐3′‐O‐sulfate] | saturable uptake | almost five‐fold | substrate | almost completely blocked | 290 nM and 300 nM | seven‐fold |  |  |
| O=c1c(O)c(-c2cc(O)c(O)c(O)c2)oc2cc(O)cc(O)c12 [MYR, myricetin] |  | did not show statistically significant differences | not substrates | almost completely blocked |  | five‐fold | 430 nM and 400 nM |  |
| O=C1c2c(O)cc(O)cc2O[C@H](c2cc(O)c(O)c(O)c2)[C@H]1O [AMP, ampelopsin] |  | did not show statistically significant differences | not substrates |  |  |  |  | ~70 |
| O=C1c2c(O)cc(O)cc2OC(c2cc(O)c(OS(=O)(=O)O)c(O)c2)C1O (stereo not drawn) [A4′S, ampelopsin‐4′‐O‐sulfate] |  | did not show statistically significant differences | not substrates |  | 2150 nM and 2200 nM |  |  | 90 |
